Test results reported in the NIST ThermoML archive (doi:10.1021/je400184t).

Experiment: xn = mol fraction of the nth substance listed
Conditions: 101 kPa, Liquid, Vibrating tube method

NCCO [2-aminoethan-1-ol] + c1ccncc1
mass density [kg/m3]
Conditions | 288.15 K | 298.15 K | 353.15 K
x2 = 0 | 1019.87 | 1012.12 | 968.332
x2 = 0.01329 | – | 1011.37 | –
x2 = 0.02208 | 1018.83 | – | 966.667
x2 = 0.03932 | 1018.01 | 1010.09 | 965.353
x2 = 0.06973 | 1016.73 | 1008.71 | 963.408
x2 = 0.1369 | 1014.03 | 1005.81 | 959.323
x2 = 0.2147 | 1011.06 | 1002.59 | 954.908
x2 = 0.3455 | 1006.12 | 997.334 | 947.883
x2 = 0.4414 | 1002.7 | 993.687 | 943.004
x2 = 0.5819 | 998.105 | 988.794 | 936.439
x2 = 0.6767 | 995.328 | 985.804 | 932.426
x2 = 0.79 | 992.252 | 982.566 | 928.035
x2 = 0.878 | 990.097 | 980.237 | 924.973
x2 = 0.96 | 988.258 | – | 922.401
x2 = 0.9817 | – | 977.805 | –

CN(CCO)CCO [N-methyldiethanolamine] + c1ccncc1
mass density [kg/m3]
Conditions | 288.15 K | 298.15 K | 353.15 K
x2 = 0 | 1046.36 | 1036.81 | 994.015
x2 = 0.01699 | – | – | 992.733
x2 = 0.04 | – | 1034.22 | –
x2 = 0.07502 | 1041.45 | – | 988.525
x2 = 0.1 | – | 1030.39 | –
x2 = 0.1844 | 1034.44 | – | 980.64
x2 = 0.2183 | – | 1023.03 | –
x2 = 0.3178 | 1025.81 | – | 971.05
x2 = 0.33 | – | 1016.1 | –
x2 = 0.4447 | 1018 | – | 961.905
x2 = 0.5265 | – | 1004.45 | –
x2 = 0.5708 | 1010.68 | – | 952.805
x2 = 0.6 | – | 1000.15 | –
x2 = 0.6945 | 1003.92 | – | 943.917
x2 = 0.7687 | – | 990.603 | –
x2 = 0.8095 | 997.843 | – | 935.616
x2 = 0.8886 | 993.774 | – | 930.006
x2 = 0.9059 | – | 983.032 | –
x2 = 0.9582 | – | 980.414 | –
x2 = 0.9597 | 990.221 | – | 924.867

Cc1ccccc1 [toluene] + CCCCCCC
298.15 K
Conditions | mass density [kg/m3]
x2 = 0 | 862.222
x2 = 0.00177 | 861.767
x2 = 0.01118 | 859.353
x2 = 0.0267 | 855.387
x2 = 0.05849 | 847.515
x2 = 0.1297 | 830.567
x2 = 0.2059 | 813.369
x2 = 0.2752 | 798.596
x2 = 0.3604 | 781.402
x2 = 0.4494 | 764.554
x2 = 0.4718 | 760.485
x2 = 0.6659 | 727.559
x2 = 0.8166 | 704.661
x2 = 0.9094 | 691.588
x2 = 0.9624 | 684.471
x2 = 0.9968 | 679.955
